Results as given in paper PMC5389473, “DNA polymerase β contains a functional nuclear localization signal at its N-terminus” (Nucleic Acids Research, 2016).
Peptide text beside a SMILES is read from it. * marks the point of attachment. FITC = O=C1OC2(c3ccc(O)cc3Oc3cc(O)ccc32)c2ccc(NC(=S)*)cc21

How the values were obtained:
hImpα5ΔIBB [1] = biological target: T1, hImpα5ΔIBB (Homo sapiens, UniProt P52294); experiment: Ligand displacement (competition) of FITC-labeled NLS peptide by lyase domain; format: binding; details: relative to value with mImpα1ΔIBB
T1 construct: human Importin α5, corresponding to residues 66–512, (hImpα5ΔIBB); His (C)
T1 sequence (P52294 66-512, stated change not applied): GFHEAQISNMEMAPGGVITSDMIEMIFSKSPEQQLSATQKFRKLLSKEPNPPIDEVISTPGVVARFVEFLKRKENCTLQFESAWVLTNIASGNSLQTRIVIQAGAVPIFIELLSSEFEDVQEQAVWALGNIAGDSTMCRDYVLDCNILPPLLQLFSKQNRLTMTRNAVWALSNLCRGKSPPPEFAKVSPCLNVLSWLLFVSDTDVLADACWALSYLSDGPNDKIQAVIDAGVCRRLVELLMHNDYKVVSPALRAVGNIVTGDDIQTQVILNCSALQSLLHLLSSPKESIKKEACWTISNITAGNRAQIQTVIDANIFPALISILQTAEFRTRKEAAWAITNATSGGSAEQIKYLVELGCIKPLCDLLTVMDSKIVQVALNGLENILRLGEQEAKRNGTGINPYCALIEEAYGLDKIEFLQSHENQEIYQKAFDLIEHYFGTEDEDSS
Protocol: His-tagged mImpα1 with the Importin β binding domain (IBB) deleted (mImpα1ΔIBB) and its major pocket variant (mImpα1ΔIBB[W184R/W231R]) were prepared as described previously ([56]). The minor binding pocket double mutant (mImpα1ΔIBB[W357R/W399R]) was created using the QuikChange kit (Agilent). C-terminal His-tagged human Importin α5, corresponding to residues 66–512, (hImpα5ΔIBB) was purchased from Genscript and cloned into the pET30 expression vector. All clones were sequence verified. mImpα1ΔIBB[W357R/W399R] and hImpα5ΔIBB were expressed and purified by the IMAC and gel filtration protocol previously described ([56]). Protein concentrations were determined by the Edelhoch procedure ([63]).
(§1) Apparent peptide dissociation constants were determined based on fluorescence polarization measurements using the fluorescein-labeled pol β NLS peptide as previously described ([56]). The binding constants for the interaction of pol β lyase domain with the Importin α constructs were determined by displacement of the FITC-labeled NLS peptide using a competition assay as previously described ([56]).
Figure 3. Binding of the pol β lyase domain to mImpα1ΔIBB and hImpα5ΔIBB. […] The initial fluorescence polarization value corresponds to the fraction of NLS peptide complexed with Impα, so that 100 would correspond to a fully complexed peptide. […]

mImpα1ΔIBB [2] = experiment: Gel filtration of lyase domain / mImpα1ΔIBB mixture; format: binding, murine; details: 2.8-fold excess lyase domain, HiLoad 26/60 Superdex 200, 20 mM Tris-HCl pH 7.8, 125 mM NaCl, 2 mM DTT, 1 mM EDTA
Protocol: (§2) For an initial assessment of binding, a sample of mImpα1ΔIBB was mixed with a 2.8-fold excess of pol β lyase domain and the sample was eluted on a HiLoad 26/60 Superdex 200 column (GE Healthcare) with a buffer containing 20 mM Tris-HCl, pH 7.8, 125 mM NaCl, 2 mM DTT, 1 mM ethylenediaminetetraacetic acid. For the analytical gel filtration experiments, hImpα5ΔIBB was mixed with 2-fold excess of wild-type or the NLS variant pol β(R4S,K5S) lyase domain and the samples were eluted on a Superdex 200 10/300 GL column (GE Healthcare) with a buffer containing 20 mM HEPES, 125 mM NaCl, 5mM DTT, 1mM ethylenediaminetetraacetic acid, pH 7.4.
Supplementary Figure S2. Interaction of pol β lyase domain with mImpα1DIBB. A sample of mImpα1DIBB was mixed with 2.8-fold excess of pol b lyase domain and the sample was eluted on a HiLoad 26/60 Superdex 200 column (GE Healthcare) with a buffer containing 20 mM Tris-HCL, pH 7.8, […]
125 mM NaCl, 2 mM DTT, 1 mM EDTA. […]
which contain both proteins while the excess pol b lyase domain elutes in fractions 41-43.
(1 picture or pasted object on this page, not shown here)

hImpα5ΔIBB [3] = biological target: T1, hImpα5ΔIBB; experiment: Analytical gel filtration of lyase domain / hImpα5ΔIBB mixtures; format: binding; details: 2-fold excess lyase domain, Superdex 200 10/300 GL, 1 ml/min, 20 mM HEPES, 125 mM NaCl, 5 mM DTT, 1 mM EDTA, pH 7.4
Protocol: as §2
Supplementary Figure S4. Interaction of the pol β lyase domain with Impα5. Analytical gel filtration experiments performed on mixtures of hImpa5DIBB and either wild-type or pol b(R4S,K5S) lyase domain.
For these experiments, hImpa5DIBB was mixed with 2-fold excess of wild-type or the NLS variant pol b(R4S,K5S) lyase domain and the samples were eluted at a flow rate of 1 ml/min on a Superdex 200 10/300 GL column (GE Healthcare) with a buffer containing 20 mM HEPES, 125 mM NaCl, 5mM DTT, […]
than Impa5DIBB alone; C) a mixture of Impa5DIBB with pol b(R4S,K5S) lyase domain elutes as two […]

mImpα1ΔIBB [4] = experiment: 1H-15N HSQC NMR binding study; set-up: species or system murine; details: 130 μM protein, equal concentration mImpα1ΔIBB; 50 mM Tris-d11 pH 7.6, 150 mM KCl; 25°C
Protocol: For the mImpα1ΔIBB binding experiments, the samples contained 0.13 mM U-[^2H,^15N]pol β and 0.13 mM mImpα1ΔIBB in a buffer consisting of 50 mM Tris-d11 (pH 7.6), 150 mM KCl, 1 mM CDTA, 1 mM dithiothreitol (DTT), 0.1 mM AEBSF, 0.04% NaN3 and 50 μM DSS as an internal chemical shift standard, with 10% D2O for ^1H-^15N HSQC experiments and 100% D2O for ^1H-^13C HSQC experiments. For studies of the effects of the R4S,K5S mutation on pol β structure and function, the [methyl-^13C]methionine-labeled pol β samples contained 0.1 mM pol β or the NLS-variant in the above 100% D2O buffer along with 0.11 mM of a 1-nucleotide gapped double-hairpin DNA substrate and 0.14 mM of the non-hydrolyzable nucleoside triphosphate substrate dAPCPP. Nuclear magnetic resonance (NMR) experiments were performed at 25°C on a Varian UNITY INOVA 600 or 800 MHz NMR spectrometer, using a 5 mm Varian ^1H{^13C,^15N} triple-resonance room-temperature or Cold Probe, equipped with actively shielded Z-gradients. The ^1H-^13C HSQC spectra were acquired using Varian's gChsqc sequence. The spectra were processed using NMRPipe version 2.1 ([64]) and analyzed using NMRView version 5.0.4 ([65]). All spectra were processed using squared cosine bell apodization functions in all dimensions and forward-backward linear prediction in the indirect dimension ([66]).
Figure 1. […]

mImpα1ΔIBB [5] = biological target: T2, mImpα1ΔIBB (Mus musculus, UniProt P52293); experiment: Fluorescence polarization, direct binding of FITC-labeled pol β NLS peptide; set-up: species or system murine; details: abstract, peptide corresponding to pol β residues 2–13
T2 construct: His; made in house
Source text: The fluorescein-labeled pol β NLS peptide: S^3[…]^14-Lys(FITC), used for fluorescence polarization assays, was obtained from Genscript at a purity level of > 90%. Methyl methanesulfonate (MMS) was from Sigma-Aldrich. Following a strategy used previously ([61]), we studied a pol β complex with a double-hairpin that forms a one-nucleotide gapped DNA substrate with the following sequence: 5΄-^[…]-3΄ (underlined nucleotide is in the gap). The oligonucleotide was from Oligos Etc., Wilsonville, OR, USA. The non-hydrolyzable deoxynucleoside triphosphate 2΄-deoxyadenosine-5΄-[(α,β)-methyleno]triphosphate (dAPCPP) was obtained from Jena Bioscience.
His-tagged mImpα1 with the Importin β binding domain (IBB) deleted (mImpα1ΔIBB) and its major pocket variant (mImpα1ΔIBB[W184R/W231R]) were prepared as described previously ([56]). […] Protein concentrations were determined by the Edelhoch procedure ([63]).
as §1

increase in affinity, hImpα5ΔIBB vs mImpα1ΔIBB (hImpα5ΔIBB [1]) [fold]	complex formation by gel filtration (mImpα1ΔIBB [2]; listed as pol b lyase domain)	complex formation by analytical gel filtration (hImpα5ΔIBB [3]; listed as wild-type lyase domain)	effect of mImpα1ΔIBB on 1H-15N HSQC resonances (mImpα1ΔIBB [4])	Molecule	complex formation by gel filtration (mImpα1ΔIBB [2])	complex formation by analytical gel filtration (hImpα5ΔIBB [3]; listed as pol b lyase domain)	Kd (in words) (mImpα1ΔIBB [5])
8	the complex elutes in fractions 28-32	does elute as a complex	broadened lyase domain amide resonances	Pol β lyase domain: N-terminal lyase domain of pol β (residues 2–87)	indicated an interaction between the two proteins	a complex of Impa5DIBB with pol b lyase domain elutes earlier	–
–	–	–	–	CC(C)C[C@H](NC(=O)[C@@H](NC(=O)[C@H](CCC(=O)O)NC(=O)[C@H](CCC(N)=O)NC(=O)[C@@H]1CCCN1C(=O)[C@H](C)NC(=O)[C@H](CCCCN)NC(=O)[C@H](CCCNC(=N)N)NC(=O)[C@H](CCCCN)NC(=O)[C@@H](N)CO)[C@@H](C)O)C(=O)N[C@@H](CC(N)=O)C(=O)NCC(=O)NCC(=O)N[C@@H](CCCCNC(=S)Nc1ccc2c(c1)C(=O)OC21c2ccc(O)cc2Oc2cc(O)ccc21)C(=O)O (H-SKRKAPQETLNGGK(FITC)-OH)	–	–	low micromolar Kd
